Laboratory results taken from patent US6737383B1, “Herbicidal oxadiazolidines” (priority 1999, dated 2004).

How the values were obtained:
[1] = test system: soybean; assay: Test B pre/postemergence soybean; assay type: in vivo, Glycine max
Procedure, shortened: (§1)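 Herbicidal effect was estimated by eye on a ten-point control scale after plants spent twelve to sixteen days in a greenhouse following soil or foliar treatment. Foliar sprays targeted plants at one to four leaves; all doses were formulated in a non-phytotoxic solvent with surfactant.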

[2] = test system: rape; assay: Test B pre/postemergence rape; assay type: in vivo, Brassica napus
Procedure, shortened: as §1

[3] = test system: wild oat; assay: Test B pre/postemergence wild oat; assay type: in vivo, Avena fatua
Procedure, shortened: as §1

[4] = test system: corn; assay: Test B pre/postemergence corn; assay type: in vivo, Zea mays
Procedure, shortened: as §1

[5] = test system: smallflower flatsedge; assay: Test B flood test smallflower flatsedge; assay type: in vivo, Cyperus difformis
Procedure, shortened: (§2)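 Read-out is a visual response score from 0 (no effect) to 10 (complete control), assigned by comparison with untreated controls. Treatment was applied at the 2-leaf stage, and plants stayed in the greenhouse for twelve to sixteen days before scoring.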

[6] = test system: cocklebur; assay: Test B pre/postemergence cocklebur; assay type: in vivo, Xanthium strumarium
Procedure, shortened: as §1

[7] = test system: bamyardgrass; assay: Test B flood test barnyardgrass; assay type: in vivo, Echinochloa crus-galli
Procedure, shortened: as §2

[8] = test system: crabgrass; assay: Test B pre/postemergence crabgrass; assay type: in vivo, Digitaria sanguinalis
Procedure, shortened: as §1

[9] = test system: pigweed; assay: Test B pre/postemergence pigweed; assay type: in vivo, Amaranthus retroflexus
Procedure, shortened: as §1

[10] = test system: velvetleaf; assay: Test B pre/postemergence velvetleaf; assay type: in vivo, Abutilon theophrasti
Procedure, shortened: as §1

[11] = test system: giant foxtail; assay: Test B pre/postemergence giant foxtail; assay type: in vivo, Setaria faberii
Procedure, shortened: as §1

[12] = test system: sugar beet; assay: Test B pre/postemergence sugar beet; assay type: in vivo, Beta vulgaris
Procedure, shortened: as §1

[13] = test system: duck salad; assay: Test B flood test duck salad; assay type: in vivo, Heteranthera limosa
Procedure, shortened: as §2

[14] = test system: morningglory; assay: Test B pre/postemergence morningglory; assay type: in vivo, Ipomoea hederacea
Procedure, shortened: as §1

[15] = test system: wheat; assay: Test B pre/postemergence wheat; assay type: in vivo, Triticum aestivum
Procedure, shortened: as §1

[16] = test system: rice; assay: Test B flood test rice; assay type: in vivo, Oryza sativa
Procedure, shortened: as §2

[17] = test system: surinam grass; assay: Test B pre/postemergence surinam grass; assay type: in vivo, Brachiaria decumbens
Procedure, shortened: as §1

[18] = test system: purple nutsedge; assay: Test B pre/postemergence purple nutsedge; assay type: in vivo, Cyperus rotundus
Procedure, shortened: as §1

[19] = test system: blackgrass; assay: Test B pre/postemergence blackgrass; assay type: in vivo, Alopecurus myosuroides
Procedure, shortened: as §1

[20] = Postemergence, Rate 125 g/ha, scale 0 to 10, 0 is no effect, 10 is complete control
[21] = Postemergence, Rate 500 g/ha, scale 0 to 10, 0 is no effect, 10 is complete control
[22] = Preemergence, Rate 62 g/ha, scale of 0 to 10 where 0 is no effect and 10 is complete control
[23] = Preemergence, Rate 125 g/ha, scale 0 to 10, 0 is no effect, 10 is complete control
[24] = Preemergence, Rate 500 g/ha, scale of 0 to 10 where 0 is no effect and 10 is complete control
[25] = Rate 62 g/ha, Postemergence, scale 0 to 10 (0 no effect, 10 complete control)
[26] = Postemergence, Rate 250 g/ha, scale 0 to 10
[27] = Rate 62 g/ha, flood test species, Pre-emergence, visual evaluation after twelve to sixteen days
[28] = Rate 125 g/ha, under heading Pre-emergence, flood test species, visual evaluation after twelve to sixteen days
[29] = Rate 250 g/ha, Pre-emergence (flood test species), scale 0 to 10, 0 is no effect, 10 is complete control
[30] = Rate 500 g/ha, Pre-emergence section of Table B, 0 to 10 scale (0 no effect, 10 complete control)
[31] = Preemergence, Rate 250 g/ha, scale 0 to 10, 0 is no effect, 10 is complete control

Q: What does the source list for `CC(C)N(C(=O)n1oc(=O)n(CC2=NCCO2)c1=O)c1ccccc1` [Compound 495]?
A: Soybean plant response rating [1, 20]: 0; Plant response rating, Soybean [1, 21]: 0; Plant response rating, Soybean [1, 22]: 0; Soybean plant response rating [1, 23]: 0; Soybean plant response rating [1, 24]: 0; Soybean plant response rating [1, 25]: 0; Rape plant response rating [2, 20]: 0; Plant response rating, Rape [2, 21]: 0; Plant response rating, Rape [2, 22]: 0; Rape plant response rating [2, 23]: 0; Rape plant response rating [2, 24]: 0; Rape plant response rating [2, 25]: 0; Wild oats plant response rating [3, 20]: 0; Plant response rating, Wild oats [3, 21]: 0; Plant response rating, Wild oats [3, 22]: 0; Wild oats plant response rating [3, 23]: 0; Wild oats plant response rating [3, 24]: 0; Wild oats plant response rating [3, 25]: 0; Corn plant response rating [4, 20]: 0; Corn plant response rating [4, 26]: 0; Plant response rating, Corn [4, 21]: 0; Plant response rating, Corn [4, 22]: 0; Corn plant response rating [4, 23]: 0; Corn plant response rating [4, 24]: 0; Corn plant response rating [4, 25]: 0; Plant response rating, S. Flatsedge (0 to 10 scale, 0 is no effect, 10 is complete control) [5, 27]: 0; S. Flatsedge plant response rating (0 to 10 scale, 0 is no effect, 10 is complete control) [5, 28]: 0; S. Flatsedge plant response rating [5, 29]: 0; S. Flatsedge plant response rating [5, 30]: 0; Cocklebur plant response rating [6, 20]: 0; Cocklebur plant response rating [6, 26]: 0; Plant response rating, Cocklebur [6, 21]: 0; Plant response rating, Cocklebur [6, 22]: 0; Cocklebur plant response rating [6, 23]: 0; Cocklebur plant response rating [6, 31]: 0; Cocklebur plant response rating [6, 24]: 0; Cocklebur plant response rating [6, 25]: 0; Plant response rating, Barnyardgrass (0 to 10 scale, 0 is no effect, 10 is complete control) [7, 27]: 0; Barnyardgrass plant response rating (0 to 10 scale, 0 is no effect, 10 is complete control) [7, 28]: 0; Barnyardgrass plant response rating [7, 29]: 0; Barnyardgrass plant response rating [7, 30]: 0; Crabgrass plant response rating [8, 20]: 0; Crabgrass plant response rating [8, 26]: 0; Plant response rating, Crabgrass [8, 21]: 0; Plant response rating, Crabgrass [8, 22]: 0; Crabgrass plant response rating [8, 23]: 0; Crabgrass plant response rating [8, 24]: 0; Crabgrass plant response rating [8, 25]: 0; Redroot pigweed plant response rating [9, 20]: 0; Plant response rating, Redroot pigweed [9, 21]: 0; Plant response rating, Redroot pigweed [9, 22]: 0; Redroot pigweed plant response rating [9, 23]: 0; Redroot pigweed plant response rating [9, 24]: 0; Redroot pigweed plant response rating [9, 25]: 0; Velvetleaf plant response rating [10, 20]: 0; Plant response rating, Velvetleaf [10, 21]: 0; Plant response rating, Velvetleaf [10, 22]: 0; Velvetleaf plant response rating [10, 23]: 0; Velvetleaf plant response rating [10, 24]: 0; Velvetleaf plant response rating [10, 25]: 0; Giant foxtail plant response rating [11, 20]: 0; Plant response rating, Giant foxtail [11, 21]: 0; Plant response rating, Giant foxtail [11, 22]: 0; Giant foxtail plant response rating [11, 23]: 0; Giant foxtail plant response rating [11, 24]: 0; Giant foxtail plant response rating [11, 25]: 0; Sugarbeets plant response rating [12, 20]: 0; Plant response rating, Sugarbeets [12, 21]: 0; Plant response rating, Sugarbeets [12, 22]: 0; Sugarbeets plant response rating [12, 23]: 0; Sugarbeets plant response rating [12, 24]: 0; Sugarbeets plant response rating [12, 25]: 0; Plant response rating, Ducksalad (0 to 10 scale, 0 is no effect, 10 is complete control) [13, 27]: 0; Ducksalad plant response rating (0 to 10 scale, 0 is no effect, 10 is complete control) [13, 28]: 0; Ducksalad plant response rating [13, 29]: 0; Ducksalad plant response rating [13, 30]: 0; Morningglory plant response rating [14, 20]: 1; Plant response rating, Morningglory [14, 21]: 7; Plant response rating, Morningglory [14, 22]: 0; Morningglory plant response rating [14, 23]: 0; Morningglory plant response rating [14, 24]: 0; Morningglory plant response rating [14, 25]: 1; Wheat plant response rating [15, 20]: 0; Plant response rating, Wheat [15, 21]: 0; Plant response rating, Wheat [15, 22]: 0; Wheat plant response rating [15, 23]: 0; Wheat plant response rating [15, 24]: 0; Wheat plant response rating [15, 25]: 0; Plant response rating, Rice (0 to 10 scale, 0 is no effect, 10 is complete control) [16, 27]: 0; Rice plant response rating (0 to 10 scale, 0 is no effect, 10 is complete control) [16, 28]: 0; Rice plant response rating [16, 29]: 0; Rice plant response rating [16, 30]: 0; B. signalgrass plant response rating [17, 20]: 0; B. signalgrass plant response rating ([17]; Postemergence, Rate 250 g/ha, scale 0 to 10, 0 no effect, 10 complete control): 0; Plant response rating, B. signalgrass [17, 21]: 0; Plant response rating, B. signalgrass [17, 22]: 0; B. signalgrass plant response rating [17, 23]: 0; B. signalgrass plant response rating [17, 31]: 0; B. signalgrass plant response rating ([17]; Preemergence, Rate 500 g/ha, scale 0 to 10, 0 is no effect, 10 is complete control): 0; B. signalgrass plant response rating [17, 25]: 0; Nutsedge plant response rating [18, 20]: 0; Plant response rating, Nutsedge [18, 21]: 0; Plant response rating, Nutsedge [18, 22]: 0; Nutsedge plant response rating [18, 23]: 0; Nutsedge plant response rating [18, 24]: 0; Nutsedge plant response rating [18, 25]: 0; Blackgrass plant response rating [19, 20]: 0; Blackgrass plant response rating [19, 26]: 0; Plant response rating, Blackgrass [19, 21]: 0; Plant response rating, Blackgrass [19, 22]: 0; Blackgrass plant response rating [19, 23]: 0; Blackgrass plant response rating [19, 31]: 0; Blackgrass plant response rating [19, 24]: 0; Blackgrass plant response rating [19, 25]: 0
